Reference: publication PMC10053003, “Study on Pharmacokinetics and Metabolic Profiles of Novel Potential PLK-1 Inhibitors by UHPLC-MS/MS Combined with UHPLC-Q-Orbitrap/HRMS” (Molecules, 2023)
Where two headings read alike, the source gives them in different places. Blank lines part the entries; values can stand above or below the compound they belong to.

Key:
[1] = format: in vitro ADME; settings: incubation of 7a in rat liver microsomes with NADPH
Method: Liver microsomes were used to investigate the metabolism clearance of 7a. In addition, 5 µL of rat liver microsome (20 mg/mL), 2 µL of 7a or onvansertib (100 µM), and 173 µL of PBS buffer (0.1 M, pH 7.4) were added to 1.5 mL Eppendorf tubes. After pre-incubation for 10 min at 37 °C, the reaction was initiated by adding an NADPH-generating system (20 µL) into the microsomal suspension. A system without NADPH was set as a negative control. After incubations for 10 min, 30 min, or 60 min, 400 µL of ice acetonitrile was added to quench the reaction. The supernatants were injected into Q Exactive ™ combined quadrupole Orbitrap mass spectrometer (Thermo Scientific, Waltham, MA, USA) for metabolite profiling and identification. The concentration of the compound to be measured at 0 min was defined as 100%, and the concentration at other times was converted into a residual percentage.

[2] = format: in vitro ADME, human; settings: for HLM (%) relative abundance (area ratio): incubation of 7a in human liver microsomes with NADPH
NCI-H2030 cells = assay: Cell proliferation inhibition, NCI-H2030 (ATPlite); format: cell-based; settings: Homo sapiens, 72 h incubation, read-out: NCI-H2030 IC50 (cell viability)
Method: (§1) HCT-116 or NCI-H2030 cells were seeded in 96-well plates at a density of 720/well and cultured overnight in a 5% CO2 incubator at 37 ± 1 °C. The compounds were diluted and added at a ratio of 1:3. After incubation for 72 h, ATPlite 1step Luminescence was added and incubated in the dark for 3 min, then was vortexed at 500 rpm for 2 min, and the luminous intensity was detected by the microplate reader and the cell inhibition was calculated as follows:Inhibition (%) = 100 − (Lum compound − Lum medium)/(Lum control − Lum medium) × 100%

[3] = Pharmacokinetic study in rats after oral administration; format: in vivo, Sprague-Dawley rats; settings: for Cmax / Tmax / half-life / bioavailability / AUC(0-t): Sprague-Dawley, rat, plasma; for AUC(0-t): read-out: AUC0–24h
Method: Sprague-Dawley rats (8 weeks old, 180–220 g) were provided by Pengyue Laboratory Animal Technology Co., Ltd (Jinan, Shandong, China). All rats were fed adaptively for 1 week (20 °C–24 °C, 50%–70% relative humidity, 12/12 h light/dark cycle). A standard diet and boiled water were provided. The rats fasted for over 12h with free access to water before the study. Furthermore, 7a was dissolved DMSO (5%) and then diluted with saline. The rats were given 7a by gavage at 5 mg/kg and 30 mg/kg. In addition, 200 μL of blood was collected into a 1.5 mL tube added with heparin at 5 min, 15 min, 30 min, 1 h, 2 h, 4 h, 6 h, 8 h, 10 h, and 24 h after administration. Plasma was acquired by centrifugation (8000 rpm, 5 min) and all samples were immediately stored at −20 °C immediately. The guidelines of the Animal Ethics Committee of Luye Pharma Group Ltd. were strictly enforced during the animal experiments to ensure animal welfare.
(§2) The main pharmacokinetic parameters were calculated using Phoenix WinNonlin 7.0 via a non-compartmental model (Pharsight, Mountain View, CA). […] Data were presented as mean ± SD.

[4] = Stability of 7a in rat plasma (QC samples, UHPLC-MS/MS); format: in vitro ADME
Method: QC samples were stored under different conditions, such as room temperature for 4 h, frozen-thawed for 3 cycles, frozen at −20 °C for 7 days, or stored in an auto-sampler for 24 h. The sample concentrations were calculated by the following calibration curve. The RE (%) and RSD (%) should be less than ±15%.

PLK1 kinase = biological target: T1, PLK1 kinase (Homo sapiens, UniProt P53350); assay: PLK1 kinase inhibition activity; format: biochemical
T1 construct: purchased CarnaBio 05–157
Method: The compounds were diluted at a 1:3 ratio on a 384-well plate with the highest concentration of 1 μM, and a total of 10 concentration points were tested. The mixture of PLK1 kinase and peptide substrate (5 μL) was added to each well. […] The results were tested by EnVision and analyzed using XLFIT5 software.

[5] = Pharmacokinetics in rats after intravenous administration; format: in vivo; settings: Sprague-Dawley, rat, plasma, i.v. 1 mg/kg
Method: The pharmacokinetic characteristics of 7a were then evaluated successfully with the validated UHPLC-MS/MS method. […] The AUC0–24h was about 517 and 3192 h × nmol/L at the doses of 5 and 30 mg/kg, respectively. The tmax was approximately 2 h, and t1/2 was 5 h. In the dose range of 5–30 mg/kg, the pharmacokinetics of 7a were almost linear. The mean plasma concentration-time curve of 7a after a single intravenous administration (1 mg/kg) and the major pharmacokinetic parameters can be found in Figure S14 and Table S1.
as §2
Figure S12. 19F NMR (400 MHz, DMSO) of compound 7a: δ -56.89 ppm.
Figure S13. Mass spectrum of compound 7a (m/z 500.2).
Figure S14. Mean concentration-time curves of compound 7a after intravenous administration in rats (1 mg/kg).
Data were presented as mean ± SD, n=3.
Table S1. Main pharmacokinetics parameters of compound 7a after intravenous administration (mean ± SD, n=3).
T (h) C0 AUC0-t V (L/kg) Cl(L/h/kg) […]

HCT-116 cells = assay: Cell proliferation inhibition, HCT-116 (ATPlite); format: cell-based; settings: Homo sapiens, 72 h incubation, read-out: HCT-116 IC50 (cell viability)
Method: as §1

[6] = both sexes, oral 5 mg/kg, mean of male and female rats
[7] = both sexes, oral 30 mg/kg, mean of male and female rats
[8] = both sexes, oral, rats, doses 5–30 mg/kg, overall statement
[9] = autosampler 4 °C for 24 h, nominal 3 nM
[10] = autosampler 4 °C for 24 h, nominal 300 nM
[11] = autosampler 4 °C for 24 h, nominal 750 nM
[12] = rat plasma, freeze −20 °C for 7 days, nominal 3 nM
[13] = rat plasma, freeze −20 °C for 7 days, nominal 300 nM
[14] = rat plasma, freeze −20 °C for 7 days, nominal 750 nM
[15] = rat plasma, freeze-thaw for 3 cycles, nominal 3 nM
[16] = rat plasma, freeze-thaw for 3 cycles, nominal 300 nM
[17] = rat plasma, freeze-thaw for 3 cycles, nominal 750 nM
[18] = rat plasma, room temperature for 4 h, nominal 3 nM
[19] = rat plasma, room temperature for 4 h, nominal 300 nM
[20] = rat plasma, room temperature for 4 h, nominal 750 nM

T1 sequence (P53350 whole entry): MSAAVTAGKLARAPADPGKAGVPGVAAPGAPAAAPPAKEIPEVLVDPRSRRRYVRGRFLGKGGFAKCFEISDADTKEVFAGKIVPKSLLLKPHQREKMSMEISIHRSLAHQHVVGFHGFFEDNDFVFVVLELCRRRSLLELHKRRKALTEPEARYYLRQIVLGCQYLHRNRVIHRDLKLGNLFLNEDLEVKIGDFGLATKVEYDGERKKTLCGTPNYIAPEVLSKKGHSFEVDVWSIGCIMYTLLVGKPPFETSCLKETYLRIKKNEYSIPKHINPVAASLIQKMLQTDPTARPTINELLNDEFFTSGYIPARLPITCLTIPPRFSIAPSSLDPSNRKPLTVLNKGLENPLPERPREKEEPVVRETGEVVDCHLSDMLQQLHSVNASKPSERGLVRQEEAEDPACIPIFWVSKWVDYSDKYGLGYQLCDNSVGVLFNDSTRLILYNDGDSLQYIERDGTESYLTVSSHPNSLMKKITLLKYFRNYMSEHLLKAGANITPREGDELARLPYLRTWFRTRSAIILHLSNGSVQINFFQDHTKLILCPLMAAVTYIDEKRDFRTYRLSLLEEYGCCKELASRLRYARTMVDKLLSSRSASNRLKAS

RLM (%) relative abundance (area ratio) [1]: 6.53% | HLM (%) relative abundance (area ratio) [2]: 34.76%
SMILES: Cn1c(-c2ccnc(Nc3cc(N4CCNCC4)ccc3OC(F)(F)F)n2)cc2c(=O)[nH]ccc21 [M2]

IC50 (NCI-H2030 cells): 38.5 nM | RLM (%) relative abundance (area ratio) [1]: 5.34% | stability of the parent in HLM ([2]; human liver microsomes): stable | HLM (%) relative abundance (area ratio) [2]: 43.73% | Cmax ([3]; oral 5 mg/kg, female rats): 102 ± 25 nM | Tmax ([3]; oral 5 mg/kg, female rats): 0.8 ± 1 h | half-life ([3]; oral 5 mg/kg, female rats): 4.6 ± 1.4 h | bioavailability ([3]; oral 5 mg/kg, female rats, read-out: F): 19.9% | Cmax ([3]; oral 5 mg/kg, male rats): 87 ± 45 nM | Tmax ([3]; oral 5 mg/kg, male rats): 3 ± 2.6 h | half-life ([3]; oral 5 mg/kg, male rats): 4.4 ± 0.9 h | bioavailability ([3]; oral 5 mg/kg, male rats, read-out: F): 23.9% | Cmax ([3]; oral 30 mg/kg, female rats): 428 ± 90 nM | Tmax ([3]; oral 30 mg/kg, female rats): 2.3 ± 1.5 h | half-life ([3]; oral 30 mg/kg, female rats): 6.1 ± 0.9 h | bioavailability ([3]; oral 30 mg/kg, female rats, read-out: F): 22.3% | Cmax ([3]; oral 30 mg/kg, male rats): 435 ± 81 nM | Tmax ([3]; oral 30 mg/kg, male rats): 2 ± 1.9 h | half-life ([3]; oral 30 mg/kg, male rats): 3.7 ± 1.3 h | bioavailability ([3]; oral 30 mg/kg, male rats, read-out: F): 22.7% | AUC(0-t) ([3]; both sexes, po, 5 mg/kg, oral 5 mg/kg, mean of male and female rats): ~0.517 µM·h | AUC(0-t) ([3]; both sexes, po, 30 mg/kg, oral 30 mg/kg, mean of male and female rats): ~3.19 µM·h | bioavailability ([3]; both sexes, po, rats, overall statement, read-out: oral bioavailability (F)): ~22% | Cmax [3, 6]: 95 ± 33 nM | Tmax [3, 6]: 1.9 ± 2.1 h | half-life [3, 6]: 4.5 ± 1.1 h | bioavailability ([3]; both sexes, oral 5 mg/kg, mean of male and female rats, read-out: F): 21.9% | Cmax [3, 7]: 432 ± 77 nM | Tmax [3, 7]: 2.2 ± 1.6 h | half-life [3, 7]: 5.1 ± 1.6 h | bioavailability ([3]; both sexes, oral 30 mg/kg, mean of male and female rats, read-out: F): 22.5% | Tmax [3, 8]: ~2 h | half-life [3, 8]: 5 h | AUC(0-t) ([3]; female, po, 5 mg/kg, oral 5 mg/kg, female rats): 0.469 ± 0.064 µM·h | AUC(0-t) ([3]; female, po, 30 mg/kg, oral 30 mg/kg, female rats): 3.16 ± 1.02 µM·h | AUC(0-t) ([3]; male, po, 5 mg/kg, oral 5 mg/kg, male rats): 0.565 ± 0.132 µM·h | AUC(0-t) ([3]; male, po, 30 mg/kg, oral 30 mg/kg, male rats): 3.22 ± 1.04 µM·h | AUC0–24h ([3]; oral 30 mg/kg, mean of male and female rats, 30 mg/kg): 3.192 ± 0.922 µM·h | Measured Concentrations [4, 9]: 3.05 ± 0.10 nM | RE (stability) [4, 9]: 1.78% | Measured Concentrations [4, 10]: 280 ± 11.9 nM | RE (stability) [4, 10]: −6.67% | Measured Concentrations [4, 11]: 701 ± 46.5 nM | RE (stability) [4, 11]: −6.58% | Measured Concentrations [4, 12]: 2.55 ± 0.13 nM | RE (stability) [4, 12]: −14.9% | Measured Concentrations [4, 13]: 272 ± 9.67 nM | RE (stability) [4, 13]: −9.33% | Measured Concentrations [4, 14]: 685 ± 34.7 nM | RE (stability) [4, 14]: −8.71% | Measured Concentrations [4, 15]: 2.73 ± 0.21 nM | RE (stability) [4, 15]: −9.17% | Measured Concentrations [4, 16]: 260 ± 10.8 nM | RE (stability) [4, 16]: −13.4% | Measured Concentrations [4, 17]: 649 ± 24.2 nM | RE (stability) [4, 17]: −13.5% | Measured Concentrations [4, 18]: 2.59 ± 0.17 nM | RE (stability) [4, 18]: −13.7% | Measured Concentrations [4, 19]: 261 ± 4.94 nM | RE (stability) [4, 19]: −13% | Measured Concentrations [4, 20]: 649 ± 17.9 nM | RE (stability) [4, 20]: −13.4% | IC50 (PLK1 kinase): 0.89 nM | AUC(0-t) [5]: 0.472 ± 0.032 µM·h | C0 [5]: 481 ± 42 nM | clearance [5]: 70 mL/min/kg | half-life [5]: 2.4 ± 0.6 h | Vd ([5]; read-out: Vss): 8.5 ± 1.3 L/kg | IC50 (HCT-116 cells): 30.6 nM
SMILES: CN1CCN(c2ccc(OC(F)(F)F)c(Nc3nccc(-c4cc5c(=O)[nH]ccc5n4C)n3)c2)CC1 [compound 7a, 1-methyl-2-(2-((5-(4-methylpiperazin-1-yl)-2-(trifluoromethoxy)phenyl)amino)pyrimidin-4-yl)-1,5-dihydro-4H-pyrrolo[3,2-c] pyridin-4-one]
PLK-1 activity and cytotoxicity, times higher than compound 25 (PLK1 kinase; relative to compound 25): more than 4 times

IC50 (NCI-H2030 cells): 74.7 nM | IC50 (PLK1 kinase; read-out: PLK1 inhibition IC50): 4.07 nM | IC50 (HCT-116 cells): 62.8 nM
SMILES: CN1CCN(c2ccc(OC(F)(F)F)c(Nc3nccc(-c4cc5c(n4C)CCNC5=O)n3)c2)CC1 [compound 25, reference compound]
